Results reported in ChEMBL document CHEMBL1123119, “Analogues of platelet activating factor (PAF). 2. Some modifications of the glycerine backbone” (J Med Chem, 1985).

Key:
Format in all cases: functional
Rattus norvegicus = species on record: Rattus norvegicus; experiment: Hypotensive activity of compound was determined in hypertensive rats, as dose required to decrease the mean arterial blood pressure 50 mmHg was determined
Oryctolagus cuniculus [1] = species on record: Oryctolagus cuniculus; experiment: Maximum platelet aggregation units at 1.9*10e-4 molar concentration was determined.
[2] = Ratio of MABP to that of platelet EC50 of the compound.
Oryctolagus cuniculus [3] = species on record: Oryctolagus cuniculus; experiment: Effective concentration required to produce 50% of the maximum platelet aggregation using rabbit platelet-rich plasma was determined.
Oryctolagus cuniculus [4] = species on record: Oryctolagus cuniculus; experiment: Maximum platelet aggregation units at 5*10e-6 molar concentration was determined.
Oryctolagus cuniculus [5] = species on record: Oryctolagus cuniculus; experiment: Maximum platelet aggregation units at 5*10e-4 molar concentration was determined.
Oryctolagus cuniculus [6] = species on record: Oryctolagus cuniculus; experiment: Maximum platelet aggregation units at 5*10e-5 molar concentration was determined.
Oryctolagus cuniculus [7] = species on record: Oryctolagus cuniculus; experiment: Maximum platelet aggregation units at 1.3*10e-5 molar concentration was determined.

| SMILES | Dose (Rattus norvegicus) | Max aggregation response (Oryctolagus cuniculus [1]) | Ratio [2] | EC50 (Oryctolagus cuniculus [3]) | Max aggregation response (Oryctolagus cuniculus [4]) | Max aggregation response (Oryctolagus cuniculus [5]) | Max aggregation response (Oryctolagus cuniculus [6]) | Max aggregation response (Oryctolagus cuniculus [7]) |
| --- | --- | --- | --- | --- | --- | --- | --- | --- |
| CCCCCCCCCCCCCCCCOCCC(COP(=O)([O-])OCC[N+](C)(C)C)OC(C)=O (centres undefined) | 0.0243 mg/kg | 50 | 0.16 | 1.5 µM | – | – | – | – |
| CCCCCCCCCCCCCCCCOCC(OC(C)=O)C(C)OP(=O)([O-])OCC[N+](C)(C)C (centres undefined) | 0.0634 mg/kg | 70 | 0.2 | 3.2 µM | – | – | – | – |
| CCCCCCCCCCCCCCCCOCC(CCOP(=O)([O-])OCC[N+](C)(C)C)OC(C)=O (centres undefined) | 0.0475 mg/kg | – | 0.34 | 1.4 µM | 65 | – | – | – |
| CCCCCCCCCCCCCCCCOC(C)C(COP(=O)([O-])OCC[N+](C)(C)C)OC(C)=O (centres undefined) | 0.00712 mg/kg | – | 0.14 | 0.51 µM | – | 65 | – | – |
| CCCCCCCCCCCCCCCCOC(C)(C)C(COP(=O)([O-])OCC[N+](C)(C)C)OC(C)=O (centres undefined) | 0.8757 mg/kg | – | 0.8 | 11 µM | – | – | 64 | – |
| CCCCCCCCCCCCCCCCOCC(COP(=O)([O-])OCC[N+](C)(C)C)OC(C)=O (centres undefined) [PLATELET ACTIVATING FACTOR] | 0.00125 mg/kg | – | 0.65 | 0.0194 µM | – | – | – | 75 |
